# Laboratory results taken from PMC9103660, “Two Novel Antihypertensive Peptides Identified in Millet Bran Glutelin-2 Hydrolysates: Purification, In Silico Characterization, Molecular Docking with ACE and Stability in Various Food Processing Conditions” (Foods, 2022).
# Entries after “also recorded” stand apart in the source; their conditions may differ. Peptide text beside a SMILES is read from it.
# Legend:
# [1] = proline-rich literature peptides; cited from earlier work
# Source text: ACE-inhibitory peptides should have sufficient resistance to digestion by proteases existing in the gastrointestinal tract to exert antihypertension activity in the body.
# [2] = tested on: ACE; assay: ACE inhibition after simulated gastrointestinal digestion; assay type: in vitro ADME; conditions: simulated gastric fluid (pepsin, pH 2.0) 90 min then simulated intestinal fluid (trypsin, bile salt, pH 6.8) 180 min, 37 °C, peptide 1 mg/mL; read-out ACE IC50 before/after
# Protocol: As per the same procedure described by Jimsheena and Gowda, the inhibition of ACE was evaluated by comparing the quantity of produced hippuric acid before and after the addition of the peptides. The IC50 value was calculated from the regression equation of ACE inhibition percentage for different concentrations of the sample and defined as the concentration of sample inhibiting ACE activity by 50%.
# Mixtures of trypsin (0.45 g), pig bile salt (3 g) and NaHCO3 (6.25 g) dissolved in 100 mL of dH2O (pH 6.8) were used to simulate the intestinal fluid, whereas pepsin (40 mg) and NaCl (0.877 g) dissolved in 100 mL of dH2O (pH 2.0) were used to simulate the gastric fluid (Sun et al., 2021). Peptide solutions (dissolved in ultrapure water, 1 mg/mL) were incubated at 37 °C in a stirring bath (140 r/min) for 15 min, and then the simulated gastric fluid was added (gastric fluid: peptide solution = 1: 10 v/v), and the mixture was further incubated at 37 °C (140 r/min) for 90 min. Then, the reaction solution was adjusted to pH 6.8 with Na2HPO4. The simulated intestinal fluid (the fluid: peptide solution = 1: 10, v/v) was added, and the mixture was stirred (140 r/min) at 37 °C for 180 min. All reaction solutions were heated at 100 °C for 8 min to inactivate the enzymes. The ACE inhibition activities of the peptides before and after digestion were separately determined to evaluate their stability.
# [3] = tested on: ACE; set-up: method as in 2 sources, ref 34, 35 = [34]; PMID 32220144; doi:10.1111/1750-3841.15115; 34. Zheng Y.J. Wang X. Zhuang Y.L. Li Y. Shi P.Q. Tian H.L. Li X.T. Chen X. Isolation of novel ACE-inhibitory peptide from naked oat globulin hydrolysates in silico approach: Molecular docking, in viv || [35]; PMID 29606478; doi:10.1016/j.foodchem.2018.02.107; 35. Tu M. Wang C. Chen C. Zhang R. Liu H. Lu W. Jiang L. Du M. Identification of a novel ACE-inhibitory peptide from casein and evaluation of the inhibitory mechanisms Food Chem. 2018 256 98 104 10.10 ||| ref 20 = [20]; doi:10.1016/j.jff.2016.11.021; 20. Zheng Y.J. Li Y. Zhang Y.L. Ruan X.H. Zhang R.G. Purification, characterization, synthesis, in vivo ACE inhibition and in vitro antihypertensive activity of bioactive peptides derived from palm ke; conditions: cited from earlier work; for IC50: literature peptides, read-out: IC50 (ACE inhibition)
Compound,stability during gastrointestinal digestion [1],stability during simulated gastrointestinal digestion [2],inhibition mode towards ACE [3],IC50 [3]
ELHPQ [proline-rich peptide identified in canary seeds],excellent stability,,,
"CC(C)C[C@H](NC(=O)[C@H](CC(C)C)NC(=O)[C@@H]1CCCN1)C(=O)N[C@@H](CCCCN)C(=O)O [PLLK, Pro-Leu-Leu-Lys] (H-PLLK-OH)",,resistant; also recorded: relatively stable; also recorded: relatively high stability,,
NMAINPSKENLCSTFCK,,,a competitive inhibitor of ACE,129 µM
SSYYPFK,excellent stability,,a competitive inhibitor,91.8 µM
KPVPR [proline-rich peptide identified in canary seeds],excellent stability,,,
LHPQ [proline-rich peptide identified in canary seeds],excellent stability,,,
"CSCC[C@H](NC(=O)[C@@H]1CCCN1C(=O)[C@@H]1CCCN1)C(=O)N[C@@H](Cc1c[nH]c2ccccc12)C(=O)N1CCC[C@H]1C(=O)N[C@@H](Cc1ccccc1)C(=O)N[C@H](C(=O)O)C(C)C [PPMWPFV, Pro-Pro-Met-Trp-Pro-Phe-Val] (H-PPMWPFV-OH)",,resistant; also recorded: relatively stable; also recorded: relatively high stability,,
